What all share (experiment): inhibition of tumour cell growth, NCI panel, 48 h
The subject of test [1] is K-562 leukemia.
In test [2] the test system is SK-MEL-2 melanoma.
Test [3] deals with CAKI-1 renal.
Test [4] deals with M14 melanoma.
Test [5] has as its system HS 578T breast.
The test system of test [6] is CCRF-CEM leukemia.
Test [7] deals with SK-MEL-5 melanoma.
Test [8] deals with MCF7 breast.

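Briefly, cells in 96-well plates were exposed to five compound concentrations for 48 h, and endpoints were estimated by linear interpolation. GI50: concentration for 50% inhibition of growth. At the TGI there is no net growth.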 Where only a bound is given, the exact number is not on record here.

For the compound `Clc1ccc(Cl)c(N/N=C\c2c[nH]c3ccccc23)c1`, the GI50 in test [1] was 1.83 µM; in test [2] it was 13.1 µM; in test [3], 5.43 µM; in test [4], 12.8 µM; in test [5] it was 3.89 µM; in test [6], 0.107 µM. The GI50 in test [7] is 10 µM; in test [8] it was over 100 µM. For the same compound, the TGI was determined as 17.7 µM in test [1]; 26.7 µM in test [2]; 19.6 µM in test [3]; 25.4 µM in test [4]; 23.1 µM in test [5]; 11.7 µM in test [6]. The TGI in test [7] is 23.1 µM; in test [8], over 100 µM.
In the case of `CCCCc1ccc2nc(NC(=O)OC)[nH]c2c1`, the GI50 in test [1] was 0.0337 µM; in test [2], 0.789 µM; in test [3], 0.0314 µM; in test [4], 0.0351 µM; in test [5], 0.0266 µM; in test [6], 0.0342 µM. In addition, the GI50 in test [7] is 0.035 µM; in test [8], 0.0343 µM. The TGI in test [1] was over 100 µM; in test [2] it was over 62.1 µM; in test [3], 12.9 µM; in test [4], 0.69 µM; in test [5], 0.649 µM; in test [7], 2.57 µM. In test [8], this compound returned a TGI of over 52.1 µM.
Regarding `COc1ccc(CN2CCc3c(Cl)nc(N)nc3C2=O)c(OC)c1`, the GI50 in test [1] is 2.46 µM; in test [2] it was 16.6 µM; in test [3], 43.6 µM; in test [4] it was 13.8 µM; in test [5] it was 19.2 µM; in test [6], 17 µM. For the same compound, the GI50 in test [7] is 13.5 µM; in test [8], 15.7 µM. Besides, the TGI is 37.7 µM in test [1]; 34.8 µM in test [2]; over 100 µM in test [3]; 28.1 µM in test [4]; 50.5 µM in test [5]; 56.6 µM in test [6]. For the same compound, the TGI amounted to 26.7 µM in test [7] and 61.3 µM in test [8].
`O=c1c(Cl)nsnc1Cl`: the TGI is 3.58 µM in test [1]; over 100 µM in test [2]; 37.3 µM in test [3]; 12.8 µM in test [4]; 78.9 µM in test [5]; 3.27 µM in test [6]. Besides, the figures for the TGI in test [7] and in test [8] were 32.8 µM and 31.5 µM, respectively.
Consider `FC(F)(F)c1ccc2nc(-c3nc(-c4ccccc4)n4ccccc34)[nH]c2c1`, for which the GI50 in test [1] was 11 µM; in test [2], 14.9 µM; in test [3], 5.07 µM; in test [4], 17.7 µM; in test [5] it was 3.65 µM; in test [6] it was 5.64 µM. Further, the GI50 in test [7] was 1.9 µM; in test [8] it was 2.4 µM. For the same compound, the TGI in test [1] is over 100 µM; in test [2], 40.3 µM; in test [3], 27.1 µM; in test [4], over 100 µM; in test [5], 33.6 µM; in test [6], over 100 µM. Moreover, the TGI in test [7] came out at 5.55 µM; in test [8], 21 µM.
Consider `O=C(Nc1ccc(Cl)c(Cl)c1)Nc1ccc(Cl)c([N+](=O)[O-])c1`, for which the GI50 in test [1] was 1.06 µM; in test [2], 1.14 µM; in test [4] it was 1.46 µM; in test [5] it was 3.65 µM; in test [6], 1.12 µM; in test [7], 2 µM. Besides, in test [8], the GI50 was 0.795 µM. The TGI in test [1] was 19 µM; in test [2] it was 5.5 µM; in test [4] it was 5.04 µM; in test [5], 16.1 µM; in test [6], over 25 µM; in test [7] it was 5.08 µM. In addition, in test [8], the TGI was 8.32 µM.
Take `Cc1cc2c(-c3nc4ccccc4[nH]3)c(O)c(O)cc2c(O)c1-c1c(C)cc2c(-c3nc4ccccc4[nH]3)c(O)c(O)cc2c1O`: the GI50 is 0.0199 µM in test [1]; 0.0993 µM in test [2]; 0.0496 µM in test [3]; 0.08 µM in test [4]; 0.0629 µM in test [5]; 0.0113 µM in test [6]. The GI50 in test [8] is 0.018 µM. The TGI is over 50 µM in test [1]; 10.6 µM in test [2]; 0.628 µM in test [3]; over 50 µM in test [4]; over 50 µM in test [5]; over 50 µM in test [6]. The compound further came in with a TGI in test [8] of 6.84 µM.
Turning to `COc1ccc(C(=O)/C=C/c2ccc(Cl)cc2)cc1S(N)(=O)=O`, the GI50 in test [1] was 0.568 µM; in test [2], 12.4 µM; in test [3] it was 2.72 µM; in test [4], 2.13 µM; in test [5], 3.28 µM; in test [6], 3.35 µM. Further, the GI50 is 5.69 µM in test [7] and 1.3 µM in test [8]. Besides, the TGI in test [1] is over 100 µM; in test [2] it was 25.7 µM; in test [3], 10.6 µM; in test [4] it was 5.68 µM; in test [5], 18.4 µM; in test [6] it was 9.35 µM. Besides, the TGI in test [7] worked out at 18 µM; in test [8] it was 6.77 µM.
`C1=C[C@@H]2c3ccc4cnccc4c3NC[C@@H]2C1`: the TGI in test [1], in test [4], in test [5], in test [6], in test [7] and in test [8] was over 100 µM throughout.
Regarding `O=C1CCC/C=C\C[C@H]2C=C(Cl)C(=O)/C2=C/C[C@H](CCCCC(F)(F)F)OC(=O)CCC/C=C\C[C@H]2C=C(Cl)C(=O)/C2=C/C[C@H](CCCCC(F)(F)F)O1`, the GI50 was 0.184 µM in test [1]; 0.329 µM in test [2]; 0.192 µM in test [4]; 0.267 µM in test [5]; 0.178 µM in test [6]; 0.412 µM in test [7]. In addition, the GI50 in test [8] was 0.176 µM. For the same compound, the TGI came to 7.5 µM in test [1]; 2.11 µM in test [2]; 0.614 µM in test [4]; 7.5 µM in test [5]; 0.884 µM in test [6]; 1.37 µM in test [7]. The compound further showed a TGI in test [8] of 0.973 µM.
